This note sets out measurements from patent publication EP1210346B1, “NEW ACTIVE MARINE ALKALOIDS” (Instituto Biomar S.A., priority 1999, dated 2001).

Data set [1] has as its system Gram-positive bacteria (Staphylococcus and others). Nature of the data set: Activity against Gram-positive bacteria. Format: cell-based.
The nature of data set [2]: Stability in acid and basic media.
The test system of data set [3] is P-388 (suspension culture of a lymphoid neoplasm from DBA/2 mouse). Nature of the data set: Antitumour screening, growth inhibition of P-388 cells (adapted Bergeron method). The data set is classed as cell-based. To be noted: P388, 72 h, three days of incubation at 37°C, approximate IC50, duplicate. The protocol:
(§1) Cells were maintained in logarithmic phase of growth in Eagle's Minimum Essential Medium, with Earle's Balanced Salts, with 2.0 mM L-glutamine, with non-essential amino acids, without sodium bicarbonate (EMEM/neaa); supplemented with 10% Fetal Calf Serum (FCS), 10^-2 M sodium bicarbonate and 0.1 g/l penicillin-G + streptomycin sulfate.
(§2) A screening procedure has been carried out to determine and compare the antitumour activity of these compounds, using an adapted form of the method described by Bergeron et al (Raymond J Bergeron, Paul F Cavanaugh, Jr, Steven J Kline, Robert G Hughes, Jr, Gary T Elliot and Carl W Porter. Antineoplastic and antiherpetic activity of spermidine catecholamide iron chelators. Biochem. Bioph. Res. Comm. 1984, 121, 848-854). The antitumour cells employed were P-388 (suspension culture of a lymphoid neoplasm from DBA/2 mouse), A-549 (monolayer culture of a human lung carcinoma), HT-29 (monolayer culture of a human colon carcinoma) and MEL-28 (monolayer culture of a human melanoma).
P-388 cells were seeded into 16 mm wells at 1 x 10^4 cells per well in 1 ml aliquots of MEM SFCS containing the indicated concentration of drug. A separate set of cultures without drug was seeded as control growth to ensure that cells remained in exponential phase of growth. All determinations were carried out in duplicate. […]

Data set [4] concerns A-549 (monolayer culture of a human lung carcinoma). The data set can be described thus: Antitumour screening, growth inhibition of A-549 cells (adapted Bergeron method, Crystal Violet staining). Format: cell-based. As to conditions: A549, 72 h, three days of incubation at 37°C, approximate IC50, duplicate. The protocol:
as §1, §2
(§3) A-549, HT-29 and MEL-28 cells were seeded into 16 mm wells at 2 x 10^4 cells per well in 1 ml aliquots of MEM 10FCS containing the indicated concentration of drug. […] An approximately IC50 was determined by comparing the growth in wells with drug to the growth in wells control.

For data set [5], the system named is MEL-28 (monolayer culture of a human melanoma). Nature of the data set: Antitumour screening, growth inhibition of MEL-28 cells (adapted Bergeron method, Crystal Violet staining). The data set is classed as cell-based. To be noted: SK-MEL-28, 72 h, three days of incubation at 37°C, approximate IC50, duplicate. The protocol: as §1, §2, §3
The test system of data set [6] is HT-29 (monolayer culture of a human colon carcinoma). Nature of the data set: Antitumour screening, growth inhibition of HT-29 cells (adapted Bergeron method, Crystal Violet staining). The data set is classed as cell-based. To be noted: 72 h, three days of incubation at 37°C, approximate IC50, duplicate. Here is the method: as §1, §2, §3

In general, IC50 refers to the midpoint of a concentration-inhibition curve. As to `COC1=C(C)C(=O)C2=C(C1=O)C1C3CC4=C(C(=O)C(OC)=C(C)C4=O)C(COC(C)=O)N3C(O)C(C2)N1C` (stereo not drawn) [Jorumycin], the “activity against Gram-positive bacteria” value in data set [1] was “showed also activity”. For the same compound, the stability entry in data set [2] was “highly unstable”. Besides, the IC50 in data set [3], in data set [4], in data set [5] and in data set [6] was 20 nM in each case.
